Laboratory results taken from patent publication US20220135590A1, “ISOXAZOLE COMPOUNDS FOR THE TREATMENT OF DISEASES ASSOCIATED WITH HBV INFECTIONS” (Janssen Science Ireland Unlimited Company, priority 2017, published 2022).

The compounds below were run on HBV (assay: HBV replication inhibition assay (BDNA assay) in HepG2.2.15 cells). Conditions: Hepatitis B virus, 144 h, 6 days incubation, encapsidated HBV DNA in supernatant by branched DNA QuantiGene assay.
Assay type: cell-based
Description: HBV Replication Inhibition Assay
HBV replication inhibition by the disclosed compounds were determined in cells infected or transfected with HBV or cells with stably integrated HBV, such as HepG2.2.15 cells (Sells et al. 1987). In this example, HepG2.2.15 cells were maintained in cell culture medium containing 10% fetal bovine serum (FBS), Geneticin, L-glutamine, penicillin and streptomycin. HepG2.2.15 cells were seeded in 96-well plates at a density of 40,000 cells/well and were treated with serially diluted compounds at a final DMSO concentration of 0.5% either alone or in combination by adding drugs in a checker box format. Cells were incubated with compounds for three days, after which medium was removed and fresh medium containing compounds was added to cells and incubated for another three days. At day 6, supernatant was removed and treated with DNase at 37° C. for 60 minutes, followed by enzyme inactivation at 75° C. for 15 minutes. Encapsidated HBV DNA was released from the virions and covalently linked HBV polymerase by incubating in lysis buffer (Affymetrix QS0010) containing 2.5 μg proteinase K at 50° C. for 40 minutes. HBV DNA was denatured by addition of 0.2 M NaOH and detected using a branched DNA (BDNA) QuantiGene assay kit according to manufacturer recommendation (Affymetrix). HBV DNA levels were also quantified using qPCR, based on amplification of encapsidated HBV DNA extraction with QuickExtraction Solution (Epicentre Biotechnologies) and amplification of HBV DNA using HBV specific PCR probes that can hybridize to HBV DNA and a fluorescently labeled probe for quantitation. In addition, cell viability of HepG2.2.15 cells incubated with test compounds alone or in combination was determined by using CellTitre-Glo reagent according to the manufacturer protocol (Promega). The mean background signal from wells containing only culture medium was subtracted from all other samples, and percent inhibition at each compound concentration was calculated by normalizing to signals from HepG2.2.15 cells treated with 0.5% DMSO using equation E1.
% inhibition (DMSOave−Xi)DMSOave×100% E1:
where DMSOave is the mean signal calculated from the wells that were treated with DMSO control (0% inhibition control) and X^1 is the signal measured from the individual wells. EC50 values, effective concentrations that achieved 50% inhibitory effect, were determined by non-linear fitting using Graphpad Prism software (San Diego, Calif.) and equation E2.
Y=Ymin+(Ymax−Ymin)/(1+10(Log EC50−X)×HillSlope) E2:
where Y represents percent inhibition values and X represents the logarithm of compound concentrations.
Selected disclosed compounds were assayed in the HBV replication assay (BDNA assay), as described above, and a representative group of these active compounds is shown in Table 3. […] In Table 3, “A” represents 1 nM<EC50≤100 nM; “B” represents 100 nM<EC50≤1,000 nM; and “C” represents 1,000 nM<EC50≤10,000 nM.

`C[C@H]1Cc2noc(-c3ncccn3)c2CN1C(=O)Nc1ccc(F)c(C#N)c1` [Example 1, (S)—N-(3-Cyano-4-fluorophenyl)-6-methyl-3-(pyrimidin-2-yl)-6,7-dihydroisoxazolo[4,3-c]pyridine-5(4H)-carboxamide] and `C[C@H]1Cc2onc(-c3ncccn3)c2CN1C(=O)Nc1ccc(F)c(C#N)c1` [Example 5, (S)—N-(3-Cyano-4-fluorophenyl)-6-methyl-3-(pyrimidin-2-yl)-6,7-dihydroisoxazolo[4,5-c]pyridine-5(4H)-carboxamide] fall in the same range of EC50: 1 to 100 nM for the first, 1 to 100 nM for the second.

`C[C@H]1Cc2noc(-c3ncccn3)c2CN1C(=O)Nc1ccnc(C(F)F)c1F` [Example 2, (S)—N-(2-(Difluoromethyl)-3-fluoropyridin-4-yl)-6-methyl-3-(pyrimidin-2-yl)-6,7-dihydroisoxazolo[4,3-c]pyridine-5(4H)-carboxamide] and `C[C@H]1Cc2noc(-c3ncccn3)c2CN1C(=O)Nc1ccnc(Br)c1F` [Example 4, (S)—N-(2-Bromo-3-fluoropyridin-4-yl)-6-methyl-3-(pyrimidin-2-yl)-6,7-dihydroisoxazolo[4,3-c]pyridine-5(4H)-carboxamide] fall in the same range of EC50: 1 to 100 nM for the first, 1 to 100 nM for the second.

First: C[C@H]1Cc2noc(-c3ncccn3)c2CN1C(=O)Nc1ccc(F)c(C(F)(F)F)c1 [Example 3, (S)—N-(4-Fluoro-3-(trifluoromethyl)phenyl)-6-methyl-3-(pyrimidin-2-yl)-6,7-dihydroisoxazolo[4,3-c]pyridine-5(4H)-carboxamide]
Second: C[C@H]1Cc2onc(-c3ncccn3)c2CN1C(=O)Nc1ccc(F)c(C(F)(F)F)c1 [Example 7, (S)—N-(4-Fluoro-3-(trifluoromethyl)phenyl)-6-methyl-3-(pyrimidin-2-yl)-6,7-dihydroisoxazolo[4,5-c]pyridine-5(4H)-carboxamide]
The EC50 of the first is lower: 1 to 100 nM for the first, 100 to 1000 nM for the second.

Compared with `C[C@H]1Cc2onc(-c3ncccn3)c2CN1C(=O)Nc1ccnc(C(F)F)c1F` [Example 6, (S)—N-(2-(Difluoromethyl)-3-fluoropyridin-4-yl)-6-methyl-3-(pyrimidin-2-yl)-6,7-dihydroisoxazolo[4,5-c]pyridine-5(4H)-carboxamide], `C[C@H]1Cc2onc(-c3ncccn3)c2CN1C(=O)Nc1ccnc(Br)c1F` [Example 8, (S)—N-(2-Bromo-3-fluoropyridin-4-yl)-6-methyl-3-(pyrimidin-2-yl)-6,7-dihydroisoxazolo[4,5-c]pyridine-5(4H)-carboxamide] is higher in EC50: 1 to 100 nM for the first, 100 to 1000 nM for the second.

First: CC1(C)CN(C(=O)Nc2ccc(F)c(C#N)c2)Cc2c1noc2-c1ncccn1 [Example 9, N-(3-Cyano-4-fluorophenyl)-7,7-dimethyl-3-(pyrimidin-2-yl)-6,7-dihydroisoxazolo[4,3-c]pyridine-5(4H)-carboxamide]
Second: CC1(C)CN(C(=O)Nc2ccc(F)c(C#N)c2)Cc2c(-c3ncccn3)noc21 [Example 13, N-(3-Cyano-4-fluorophenyl)-7,7-dimethyl-3-(pyrimidin-2-yl)-6,7-dihydroisoxazolo[4,5-c]pyridine-5(4H)-carboxamide]
The EC50 of the first is lower: 1 to 100 nM for the first, 100 to 1000 nM for the second.

Compared with `CC1(C)CN(C(=O)Nc2ccc(F)c(C(F)(F)F)c2)Cc2c1noc2-c1ncccn1` [Example 10, N-(4-Fluoro-3-(trifluoromethyl)phenyl)-7,7-dimethyl-3-(pyrimidin-2-yl)-6,7-dihydroisoxazolo[4,3-c]pyridine-5(4H)-carboxamide], `CC1(C)CN(C(=O)Nc2ccc(F)c(C(F)(F)F)c2)Cc2c(-c3ncccn3)noc21` [Example 14, N-(4-Fluoro-3-(trifluoromethyl)phenyl)-7,7-dimethyl-3-(pyrimidin-2-yl)-6,7-dihydroisoxazolo[4,5-c]pyridine-5(4H)-carboxamide] is higher in EC50: 100 to 1000 nM for the first, 1000 to 10000 nM for the second.

Compared with `CC1(C)CN(C(=O)Nc2ccnc(C(F)F)c2F)Cc2c1noc2-c1ncccn1` [Example 11, N-(2-(Difluoromethyl)-3-fluoropyridin-4-yl)-7,7-dimethyl-3-(pyrimidin-2-yl)-6,7-dihydroisoxazolo[4,3-c]pyridine-5(4H)-carboxamide], `CC1(C)CN(C(=O)Nc2ccnc(Br)c2F)Cc2c1noc2-c1ncccn1` [Example 12, N-(2-Bromo-3-fluoropyridin-4-yl)-7,7-dimethyl-3-(pyrimidin-2-yl)-6,7-dihydroisoxazolo[4,3-c]pyridine-5(4H)-carboxamide] is lower in EC50: 100 to 1000 nM for the first, 1 to 100 nM for the second. The second is the more potent here.

First: CC1(C)CN(C(=O)Nc2ccnc(C(F)F)c2F)Cc2c(-c3ncccn3)noc21 [Example 15, N-(2-(Difluoromethyl)-3-fluoropyridin-4-yl)-7,7-dimethyl-3-(pyrimidin-2-yl)-6,7-dihydroisoxazolo[4,5-c]pyridine-5(4H)-carboxamide]
Second: CC1(C)CN(C(=O)Nc2ccnc(Br)c2F)Cc2c(-c3ncccn3)noc21 [Example 16, N-(2-Bromo-3-fluoropyridin-4-yl)-7,7-dimethyl-3-(pyrimidin-2-yl)-6,7-dihydroisoxazolo[4,5-c]pyridine-5(4H)-carboxamide]
The EC50 of the first is higher: 100 to 1000 nM for the first, 1 to 100 nM for the second. The second is the more potent here.
